# Measurements reported in patent publication US20250114313A1, “OLIGO-BENZAMIDE ANALOGS AND THEIR USE IN CANCER TREATMENT” (BOARD OF REGENTS, THE UNIVERSITY OF TEXAS SYSTEM, priority 2022, published 2025).
# Tests used:
# D2A1 xenografts = assay: D2A1 syngeneic tumor model; format: in vivo, BALB/c mice; conditions: 10 mg/kg daily
# Method: (§1) Animal Studies: All animal experiments were performed using UTHSA and UTSW IACUC approved protocols. For cell based xenograft tumor assays, TNBC cells (2×10^5-2×10^6) were mixed with an equal volume of matrigel and implanted in the mammary fat pads of 6-week-old female athymic nude mice as described^33. BALB/c mice were used for D2A1 syngeneic model. Once tumors reached measurable size, mice were divided into control (vehicle) and ERX-41 (10 mg/kg/oral) treatment groups. Mice bearing TNBC PDX tumors were purchased from Jackson laboratory (TM00089; TM00096; TM00098). TNBC PDX line UTPDX0001 establishment was earlier described^38. WHIM-20 ER+PDX model was purchased from Horizon Labs. OCa-PDX-38 was received from UTHSA ObGyn tissue procurement core. When tumors reached ˜750 mm^3 they were dissected into 2 mm^3 pieces and implanted into the mammary fat pads of 6 weeks old female SCID or NSG mice. When the tumor volume reached ˜200 mm^3, mice were randomized for treatment. The mice were monitored daily for adverse toxic effects and tumor volume was measured every 3-4 days using calipers. For establishing ES2 tumors, ES2/GFP/LUC cells were injected i.p. and tumors were measured twice a week using Xenogen in vivo imaging system. […] The mice were monitored daily for adverse toxic effects. […] The sections were scored by two independent evaluators blinded to the patient's clinical status.
# four distinct TNBC PDXs = assay: TNBC PDXs in mammary fat pad; format: in vivo, mice; conditions: daily oral, 10 mg/kg/day
# Method: as §1
# [1] = system: ERα+ breast PDX (WHIM-20); assay: ERα+ breast PDX WHIM-20; format: in vivo, NSG mice; conditions: 10 mg/kg daily
# Method: as §1
# [2] = system: ovarian cancer cell line xenograft (ES2); assay: Ovarian cancer cell line xenograft ES2; format: in vivo, mice; conditions: 10 mg/kg/day i.p.
# Method: as §1
# vinculin = target: T1, vinculin (Homo sapiens, UniProt P18206); assay: Cellular thermal shift assay, vinculin; format: binding; conditions: 10 μM, SUM-159 cells
# T1 construct: heat stability of LAL or vinculin protein in SUM-159 cells; endogenous in cells; host or cells: SUM-159
# T1 sequence (P18206 1-1066 isoform P18206-2): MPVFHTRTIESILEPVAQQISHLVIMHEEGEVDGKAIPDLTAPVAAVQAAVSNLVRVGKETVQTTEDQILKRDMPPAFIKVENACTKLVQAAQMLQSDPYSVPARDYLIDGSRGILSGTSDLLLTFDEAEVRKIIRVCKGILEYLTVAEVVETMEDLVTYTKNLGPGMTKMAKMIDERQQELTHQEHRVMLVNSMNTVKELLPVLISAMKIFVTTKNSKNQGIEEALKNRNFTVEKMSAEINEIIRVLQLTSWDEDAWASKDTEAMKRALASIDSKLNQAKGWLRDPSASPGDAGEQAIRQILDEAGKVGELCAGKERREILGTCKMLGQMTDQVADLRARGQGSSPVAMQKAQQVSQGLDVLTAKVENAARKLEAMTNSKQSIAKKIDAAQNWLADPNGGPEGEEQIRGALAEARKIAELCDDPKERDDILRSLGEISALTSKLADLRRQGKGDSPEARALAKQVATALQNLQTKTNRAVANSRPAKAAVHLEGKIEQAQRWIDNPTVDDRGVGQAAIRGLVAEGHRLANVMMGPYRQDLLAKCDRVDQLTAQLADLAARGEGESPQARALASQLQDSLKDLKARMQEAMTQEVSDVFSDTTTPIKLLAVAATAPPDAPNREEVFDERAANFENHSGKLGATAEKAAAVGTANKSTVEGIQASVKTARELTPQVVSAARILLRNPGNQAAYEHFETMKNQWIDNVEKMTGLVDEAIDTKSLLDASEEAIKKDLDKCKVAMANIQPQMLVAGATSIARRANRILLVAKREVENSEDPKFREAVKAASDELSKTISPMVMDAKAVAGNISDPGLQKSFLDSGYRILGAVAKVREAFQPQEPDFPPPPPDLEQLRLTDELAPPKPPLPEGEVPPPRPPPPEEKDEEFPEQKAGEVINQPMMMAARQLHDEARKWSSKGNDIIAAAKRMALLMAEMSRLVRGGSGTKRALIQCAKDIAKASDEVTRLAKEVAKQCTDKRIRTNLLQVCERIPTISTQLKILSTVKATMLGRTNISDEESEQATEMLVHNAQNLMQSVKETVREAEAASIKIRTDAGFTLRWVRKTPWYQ
# Method: Cellular Thermal Shift Assay (CETSA): Cellular Thermal Shift Assays were performed as described previously^36. Briefly, cells were treated with DMSO or 10 μM ERX-41 for 30 min, then trypsinized, pelleted and resuspended in PBS supplemented with Halt protease inhibitor cocktail (Thermo Scientific), with DMSO or 10 μM ERX-41. Resuspended cells were aliquoted into PCR strips. The cells were incubated in thermal cycler (Bio-rad) at gradient temperatures for 3 minutes, followed by incubation at 25° C. for 3 minutes. Then cells were snap-frozen in liquid nitrogen. Freeze-thaw the cells twice using liquid nitrogen. Then transfer samples into Eppendorf tubes, followed by briefly vortex and centrifuge at 20,000 g for 20 minutes at 4° C. Mix cleared cell lysates with ⅓ volume of 4× Laemmli sample buffer. After boiling, cell lysates were resolved in SDS-PAGE followed by western blotting.
# Sum159 cells = assay: DIA-MS of whole cell lysates; format: cell-based, Human; conditions: 500 nM, 6 h
# Method: Mass spectrometry based DIA analyses of whole cell lysates: Sum159 cells were treated with vehicle or ERX-41 (500 nM). After 6 h of treatment, cells were pelleted and snap-frozen and then lysed in buffer containing 5% SDS/50 mM triethylammonium bicarbonate (TEAB) in the presence of protease and phosphatase inhibitors (Halt; Thermo Scientific) and nuclease (Pierce™ Universal Nuclease for Cell Lysis; Thermo Scientific). Aliquots corresponding to 100 μg protein (EZQ™ Protein Quantitation Kit; Thermo Scientific) were reduced with tris (2-carboxyethyl)phosphine hydrochloride (TCEP), alkylated in the dark with iodoacetamide and applied to S-Traps (mini; Protifi) for tryptic digestion (sequencing grade; Promega) in 50 mM triethylammonium bicarbonate (TEAB). Peptides were eluted from the S-Traps with 0.2% formic acid in 50% aqueous acetonitrile and quantified using Pierce™ Quantitative Fluorometric Peptide Assay (Thermo Scientific). Data-independent acquisition mass spectrometry (DIA-MS) was conducted on an Orbitrap Fusion Lumos mass spectrometer (Thermo Scientific). On-line HPLC separation was accomplished with an RSLC NANO HPLC system (Thermo Scientific/Dionex: column, PicoFrit™ (New Objective; 75 μm i.d.) packed to 15 cm with C18 adsorbent (Vydac; 218MS 5 μm, 300 Å); mobile phase A, 0.5% acetic acid (HAc)/0.005% trifluoroacetic acid (TFA) in water, mobile phase B, 90% acetonitrile/0.5% HAc/0.005% TFA/9.5% water; gradient 3 to 42% B in 120 min; flow rate, 0.4 μl/min. A pool was made of the 6 samples (three replicates from each group), and 2-μg peptide aliquots were analyzed using gas-phase fractionation and 4-m/z windows (30k resolution for precursor and product ion scans, all in the orbitrap) to create a DIA chromatogram library^40 by searching against a Prosit-generated predicted spectral library^41 based on the UniProt_human_20191022 protein sequence database. Experimental samples were blocked by replicate and randomized within each replicate for sample preparation and analysis; injections of 2 μg of peptides and a 2-h HPLC gradient were employed. […]
# TNBC cells = assay: Ca^2+ flux in TNBC cells; format: cell-based; conditions: data not shown
# TNBC = assay: ER stress, cell death and lysosomes in TNBC (discussion, no method); format: cell-based
compound,measurement,setting,value
CC(C)COc1cc(C(=O)Nc2ccc(C(=O)N[C@H]3CC[C@H](C)CC3)cc2OCC(C)C)ccc1NC(=O)c1ccc([N+](=O)[O-])c(OCCO)c1 [ERX-41],growth of D2A1 xenografts,D2A1 xenografts,significantly reduce the growth
same,rates of growth of PDX tumors,four distinct TNBC PDXs,significantly decreased the rates of growth of the tumors
same,activity against WHIM-20 PDX,[1],has activity against
same,activity against ES2 xenograft,[2],has activity against
same,thermal stability of vinculin,vinculin,did not affect vinculin thermal stability
same,number of cellular proteins with significantly affected expression,Sum159 cells,189
same,number of down-regulated proteins,Sum159 cells,153
same,number of up-regulated proteins,Sum159 cells,36
same,Ca^2+ flux within TNBC cells,TNBC cells,not able to induce Ca^2+ flux
same,changes in lysosomes,TNBC,no significant changes in lysosomes
